Source: PubChem BioAssay AID434987 (Southern Research Specialized Biocontainment Screening …, 2010)
Active and inactive are the calls of the source. The rule behind the calls is not given here.

System: M. tuberculosis H37Rv growth inhibition with meropenem
Test: dose response, H37Rv, with and without meropenem (AID 434987);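 note: growth over 7 days at 37 °C before Alamar Blue read on day 9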
[1] = M. tuberculosis H37Rv growth inhibition, measured here: IC50 without meropenem
[2] = M. tuberculosis H37Rv growth inhibition, measured here: IC90 without meropenem
[3] = measured here: IC90 with meropenem

SMILES | IC50 | IC50 [1] [µM] | IC90 [2] [µM] | IC90 [3] [µM]
N#Cc1c(SCC(=O)O)nc(N2CCCCC2)c2c1CCCC2 | 15.6 µM | 49.6 | > 100 | 27
CN1C(=O)/C(=C/c2ccc(C(=O)NC3CCCC3)cc2)Oc2ccccc21 | > 100 µM (inactive) | > 100 | > 100 | > 100
CC(C)C(=O)Nc1ccc2c3c(cccc13)CC2 | 19.4 µM | > 100 | > 100 | > 100
Cn1c(/C=C/c2ccc(Br)cc2)c([N+](=O)[O-])c(=O)n(C)c1=O | > 100 µM (inactive) | > 100 | > 100 | > 100
CCCCC(=O)NC(=S)Nc1ccc(NC(=O)C(C)C)c(OC)c1 | 99.9 µM (inactive) | > 100 | > 100 | > 100
O=C(COC(=O)C1=COCCO1)Nc1ccc2c(c1)OCO2 | 3.86 µM | 50 | > 100 | > 100
COc1ccc(-c2nn(-c3ccccc3)cc2C(=O)Nc2nccs2)cc1OC | > 100 µM (inactive) | > 100 | > 100 | > 100
Cc1cn([C@@H](CCCCNC(=O)OC(C)(C)C)C(=O)NCCCCCCCCCCC(=O)N2CCN(C(=O)OC(C)(C)C)CC2)nn1 | 97.7 µM (inactive) | > 100 | > 100 | > 100
Cc1ccc(C(=O)N2CCC3(CC2)Oc2ccc(F)cc2C(=O)C32CC(c3cccnc3)=NO2)s1 (stereo not drawn) | 97.5 µM (inactive) | 94.9 | > 100 | > 100
CC(/C=C(\NC(=O)c1ccccc1)C(=O)N=Nc1c(O)[nH]c2ccc(C)cc12)=C\c1ccccc1 | > 100 µM (inactive) | > 100 | > 100 | > 100
COc1cccc(-n2c([S-])c(C(=O)Nc3ccc(S(=O)(=O)N4CCOCC4)cc3)[n+]3cc(C(N)=O)ccc23)c1 | > 100 µM (inactive) | > 100 | > 100 | > 100
O=C(CN(Cc1ccco1)C(=O)c1cccc(Cl)c1)Nc1c(Cl)cc(Cl)cc1Cl | 48.3 µM (inactive) | > 100 | > 100 | > 100
CCC1CCCCN1C(=O)CSc1nnc(-c2ccc(Cl)s2)o1 (stereo not drawn) | > 100 µM (inactive) | > 100 | > 100 | > 100
CN(C)c1ccc(S(=O)(=O)NCC(=O)OCC(=O)Nc2cccc(Cl)c2)cc1[N+](=O)[O-] | > 100 µM (inactive) | > 100 | > 100 | > 100
COc1ccc(-c2cc(C(F)(F)F)nc(SCC(=O)Nc3sc4c(c3C#N)CCC4)n2)cc1 | 94 µM (inactive) | > 100 | > 100 | > 100
O=C(COC(=O)C1CC1)c1c[nH]c2ccccc12 | 0.999 µM | > 100 | > 100 | > 100
CCSc1nnc(NC(=O)CSc2nccn2-c2cccc(C)c2)s1 | > 100 µM (inactive) | > 100 | > 100 | > 100
Cc1ccccc1OCC(=O)Nc1ccccc1N1CCCCC1 | 5.94 µM | 96.4 | > 100 | 13.5
CCOC(=O)c1cnn(-c2ncnc3sc4c(c23)CCC4)c1N | 23.6 µM | > 100 | > 100 | > 50

SMILES | IC50 | IC50 [1] [µM] | IC90 [2] [µM] | IC90 [3] [µM]
C/C(=N/NC(=O)c1ccccn1)c1ccncc1 | 9.52 µM | 31.8 | > 100 | 23.1
CCSc1nnc(NC(=O)Cn2cnc3ccccc3c2=O)s1 | > 100 µM (inactive) | > 100 | > 100 | > 100
CCOc1ccc2cc(S(=O)(=O)N3CCCCC3)ccc2c1 | > 100 µM (inactive) | > 100 | > 100 | > 100
C[C@@H]1CC=C[C@H]2[C@H]1C(=O)N(Cc1ccccc1)[C@H]2c1ccc(/C=C/c2ccccc2)cc1F | > 100 µM (inactive) | > 100 | > 100 | > 100
O=C(c1cccc(C(=O)N2CCN(c3ccc(F)cc3)CC2)c1)N1CCN(c2ccc(F)cc2)CC1 | 93.2 µM (inactive) | 95.2 | > 100 | > 100
CC(C)(C)c1nc2scc(-c3cccs3)c2c(=O)o1 | > 100 µM (inactive) | > 100 | > 100 | > 100
CCOC(=O)C1CCN(C(=O)c2sc3nc(C)nc(N4CCC(C)CC4)c3c2C)CC1 | 69.5 µM (inactive) | 76.5 | > 100 | > 100
CC1(C)CC(CCNC(=O)CCl)(c2ccccc2)CCO1 (stereo not drawn) | 2.38 µM | 9.13 | 34.7 | 8.14
CC1CCCC(NC(=O)COC(=O)c2cccc(NS(=O)(=O)/C=C/c3ccccc3)c2)C1C (stereo not drawn) | > 100 µM (inactive) | > 100 | > 100 | > 100
CCOc1cc(N2CCOCC2)c(OCC)cc1NC(=O)COc1cccc(CC)c1 | > 100 µM (inactive) | > 100 | > 100 | > 100
CCOC(=O)N1CCN(C(=O)CSc2nnc(COc3ccccc3)o2)CC1 | 7.33 µM | 21.5 | 72.9 | 18.4
O=C(Cc1cccc2ccccc12)N/N=C/c1ccc(OC(=O)/C=C/c2ccco2)cc1 | 69 µM (inactive) | > 100 | > 100 | > 100
CN(C)CC[C@@H](c1ccc(Br)cc1)c1ccccn1 | > 100 µM (inactive) | > 100 | > 100 | > 100
CCN(CC)C(=O)C1CCCN(c2ccc([N+](=O)[O-])cc2/C=N/NC(=O)c2cccc(O)c2)C1 (stereo not drawn) | 48.1 µM (inactive) | 47.1 | 70.6 | 55.3
O=C1N=C(N2CCCC2)S/C1=C\c1cccc(Br)c1 | 30.9 µM (inactive) | 55 | > 100 | > 100
CC(C)(C)c1ccc(OCC(=O)N/N=C/c2cc(Br)ccc2OC(=O)c2ccco2)cc1 | 82.7 µM (inactive) | > 100 | > 100 | > 100
COC(=O)/C(=C\Nc1ccc(Cl)c2ccccc12)c1ncc(C(F)(F)F)cc1Cl | 36 µM | > 100 | > 100 | > 100
Cc1cccc2c(C(=O)n3cccn3)cc(-c3ccccc3Cl)nc12 | 7.95 µM | 52.7 | > 100 | 26.8
COc1ccc([N+](=O)[O-])cc1NC(=O)c1ccc(Br)s1 | > 100 µM (inactive) | > 100 | > 100 | > 100

SMILES | IC50 | IC50 [1] [µM] | IC90 [2] [µM] | IC90 [3] [µM]
O=C(Nc1ccc(S(=O)(=O)N2CCCCC2)cc1)C1CCCN(C(=O)c2ccc(Cl)cc2)C1 (stereo not drawn) | > 100 µM (inactive) | > 100 | > 100 | > 100
CC(C(=O)Nc1nc2ccccc2[nH]1)N1C(=O)C2CC=CCC2C1=O (stereo not drawn) | > 100 µM (inactive) | > 100 | > 100 | > 100
CCc1cc2c(-c3ccccc3)cc(=O)oc2cc1OC(C)C(C)=O (stereo not drawn) | 45.6 µM (inactive) | 47.4 | 53.8 | 48.5
CCOc1ccc2c(c1)c(C(C)=O)c(C)n2-c1ccccc1 | < 0.2 µM | > 100 | > 100 | 1.96
O=C1NC(=O)N(Cc2ccco2)C(=O)/C1=C\c1ccc(-c2ccc(F)cc2)o1 | 80.7 µM (inactive) | 84.5 | > 100 | > 100
O=C(CSc1n[nH]c(=O)n1C1CC1)c1ccc2c(c1)OCCO2 | 4.9 µM | 46.3 | > 100 | > 100
CCc1cc(C(N)=S)ccn1 | 8.46 µM | 59.3 | > 100 | 12.8
CN(C)c1ccc(/C=N/NC(N)=S)cc1[N+](=O)[O-] | 19.9 µM | > 100 | > 100 | > 50
OCCCc1cn(-c2ccccc2)c2ccccc12 | 12.4 µM | > 100 | > 100 | 60.8
Cc1ccc(/C=C/C(=O)OCC(=O)NC(C)c2ccccc2)o1 (stereo not drawn) | > 100 µM (inactive) | > 100 | > 100 | > 100
Cc1ccccc1Cn1cc(NC(=O)CSc2nc3c(c(C(F)(F)F)n2)CCc2ccccc2-3)cn1 | 26.4 µM | > 100 | > 100 | > 100
COc1ccc(C(=O)Nc2ccc3nc(N4CCCCC4)cc(C)c3c2)c(OC)c1 | 5.19 µM | > 100 | > 100 | > 100
CC(C)(C)C1CCC(OCC(O)CN2CCN(c3ccccn3)CC2)CC1 (stereo not drawn) | 100 µM (inactive) | > 100 | > 100 | > 100
Cc1ccc(NC(=S)Nc2ncccc2C)c(C)c1 | 46.2 µM (inactive) | 97.1 | > 100 | > 100
CCOc1cc(N2CCOCC2)c(OCC)cc1NC(=O)c1cc(C)cc(C)c1 | 23.7 µM | > 100 | > 100 | > 100
CSc1nnc(-c2ccc(NC(N)=S)cc2)o1 | 12.2 µM | > 100 | > 100 | > 100
CCn1c(=O)n(CC)c2cc(N3CCCC3)c(NC(=O)c3cc(Br)ccc3OC)cc21 | > 100 µM (inactive) | > 100 | > 100 | > 100
COC(=O)Cn1c2ccccc2c2nc(C)sc21 | 18.9 µM (inactive) | 25.4 | 44.4 | 27.8
COC(=O)C1=C(C)NC(=O)/C1=C\c1cc(C)n(-c2cc(C)cc(C)c2)c1C | 88.9 µM (inactive) | 97.9 | > 100 | > 100
